Data as given in paper PMC6934184, “Selective DNA-PKcs inhibition extends the therapeutic index of localized radiotherapy and chemotherapy” (The Journal of Clinical Investigation, 2019).

Experiments:
[1] = test system: DNA-PK–expressing tumor cell lines; assay: clonogenic survival with IR, tumor cell line panel; assay type: cell-based, human; conditions: 1 μM, 24 hours
Experimental: Cell line γH2AX and 53BP1 foci immunofluorescence and quantitation
Cells grown on coverslips or in 96-well plates were treated with 1 or 5 µM NU5455 or DMSO 1 hour prior to irradiation (0, 2.5 or 10 Gy) using an RS 320 X-ray Research System (Gulmay Medical). At set timepoints (15 or 30 minutes, or 1, 4, 5, 6, or 24 hours post-irradiation), cells were washed and fixed in methanol or 3% paraformaldehyde (PFA). […] In A549 and Calu-6, cells were Hoechst stained (5 µg/ml), and the average numbers of γH2AX and 53BP1 foci per cell were quantified from 400 nuclei per sample using an In Cell analyzer 1000 (GE Healthcare). For MCF7 cells, coverslips were mounted using Vectashield mounting medium with DAPI (Vector Labs) and imaged using a Leica TCS SPE confocal fluorescence microscope. Total fluorescence intensity was determined using ImagePro Plus 5.0 software (Media Cybernetics). […]
Cells were washed in phosphate-buffered saline (PBS), trypsinized and counted. […] Colonies were fixed using Carnoys fixture (75% v/v methanol, 25% v/v acetic acid, Fisher), stained with crystal violet (0.4% w/v in water), and counted using a ColCount automated colony counter (Oxford Optronics). Cell survival was calculated as a percentage of the untreated control. […]

[2] = test system: Huh7; assay: clonogenic survival with doxorubicin; assay type: cell-based, human; conditions: NU5455 1 μM, 24 hours

CN(C(=O)CN1CCOCC1)c1ccc2sc3c(-c4cccc5c(=O)cc(N6CC7CCC(C6)O7)oc45)cccc3c2c1 [NU5455]
SER80 values, median over cell lines [1]: 2.3 fold | Fold potentiation of doxorubicin (LD80, SER80) [2]: 3.5 fold
